The source of these data is article PMC2009384, “The carcinogenicity of polycyclic hydrocarbon epoxides in newborn mice” (British Journal of Cancer, 1975).

This series deals with newborn Swiss mice. Kind of series: Experiment II: carcinogenicity in newborn mice, chrysene, 7-methylbenz(a)anthracene and K region epoxides (s.c. injection, tumour incidence to 70-75 weeks). The conditions noted are these: for effect on the incidence of liver, lung or other tumours: in the doses tested (3 x 100 µg or 1 x 60 µg). From the text: Br. J. Cancer (1975) 31, 182 THE CARCINOGENICITY OF POLYCYCLIC HYDROCARBON EPOXIDES IN NEWBORN MICE P. L. GROVER, P. SIMS, B. C. V. MITCHLEY AND F. J. C. ROE From the Chester Beatty Research Institute, Institute of Cancer Research, Royal Cancer Hospital, Fulham Road, London, SW3 6JB Received 9 August 1974. […] THE HYPOTHESIS that the carcino- genicity of polycyclic hydrocarbons is associated with the formation of epoxide metabolites (Grover, Hewer and Sims, 1971, 1972; Keysell et al., 1973) is sup- ported by some experimental evidence but remains unproven. […] The epoxides can also act as alkylating agents (Grover and Sims, 1970) and as mutagens (Ames, Sims and Grover, 1972; Huberman et al., 1971; Cookson, Sims and Grover, 1971; Fahmy and Fahmy, 1973). […] The newborn mouse, which is susceptible to carcinogenic polycyclic hydrocarbons (Roe, Rowson and Salaman, 1961; Roe, Mitchley and Walters, 1963; Walters and Roe, 1964, 1966) can be considered as a convenient source of several types of rapidly dividing cells. Consequently we have tested the K region epoxides derived from phenanthrene, benz(a)anthracene, 7-methylbenz(a)anthracene, dibenz(a,h)- anthracene, chrysene and 3-methylchol- anthrene, together with some of the CARCINOGENICITY OF POLYCYCLIC HYDROCARBON EPOXIDES IN MICE 183 parent hydrocarbons, for carcinogenicity using newborn mice. This paper presents the results that were obtained in these experiments. MATERIALS AND METHODS The polycyclic hydrocarbon epoxides, phenanthrene 9,10-oxide, benz(a)anthracene 5,6-oxide, 7-methylbenz(a)anthracene 5,6- oxide, dibenz(a,h)anthracene 5,6-oxide, chry- sene 5,6-oxide and 3-methylcholanthrene 11,12-oxide were prepared from the parent hydrocarbons (Newman and Blum, 1964; Boyland and Sims, 1965; Sims 1966). Two experiments were undertaken fol- lowing similar protocols. For each experi- ment Swiss mice from a specific pathogen- free colony were time mated so as to produce a large number of litters over the course of 2 or 3 days. […] Test compounds were suspended in poly- ethylene glycol (PEG) 400 and injections of 0-02 ml of the suspension were given by introducing a 25 gauge hypodermic needle through the skin near the root of the tail and threading it subcutaneously to deliver the injected material in the interscapular region. Injections were given to every mouse on the first day or first 3 days of life. The details of treatments and numbers of mice of each sex in each group are shown in Table I (Experiment I) and Table II (Ex- periment II). Surviving mice were weaned when they w ere 21 days old. Thereafter, males and females w ere separated and housed 6 per cage in metal boxes. A mixture of sawdust and wood shavings was used as bedding. The mice were fed on a standard cubed diet (Formulation 86 from C. Holdman and Sons (Plow co Feeds), Byers Lane, South Godstone, Surrey) and water was given ad libitum. Mice were inspected daily, and at weekly intervals they were weighed and palpated for tumours and other lesions. […] The experiment was terminated when surviving mice were between 70 and 75 weeks old. A full routine post- mortem examination, which included disten- sion of the urinary bladder with fixative, was carried out. The number of lesions thought to be neoplasms and the size of the largest such lesion in each organ affected were recorded. All tissues with suspected neoplasms were fixed in Bouin's solution. Haematoxylin and eosin stained 5 µm paraffin wax sections were prepared and examined microscopically. RESULTS The results of the two experiments in terms of tumour incidence are sum- marized in […].

The mark [1] stands for this setting: females, 100 µg per treatment, 3 treatments.
The mark [2] stands for this setting: females, 100 µg per treatment, 3 treatments (Days 0, 1 and 2) s.c. in PEG 400.
Setting [3] is: males, 100 µg per treatment, 3 treatments.
The mark [4] stands for this setting: males, 100 µg per treatment, 3 treatments (Days 0, 1 and 2) s.c. in PEG 400.
Setting [5] is: females, 60 µg, 1 treatment (Day 0 only) s.c. in PEG 400.
[6] abbreviates: males, 60 µg, 1 treatment (Day 0 only) s.c. in PEG 400.

For `c1ccc2c(c1)ccc1c3ccccc3ccc21` [Chrysene, reference compound], under “3 x 100 µg s.c., newborn”, the liver tumour incidence entry is “increased”. Moreover, under setting [1], the “No. of mice examined at p.m. at termination of experiment (70-75th week) with liver tumours” value was found to be 0, the “No. of mice examined at p.m. at termination of experiment (70-75th week) with lung tumours” value was 0, the “No. of mice examined at p.m. at termination of experiment (70-75th week) with multiple liver tumours” value amounted to 0 and the “No. of mice examined at p.m. at termination of experiment (70-75th week) with multiple lung tumours” value is listed as 0. Under setting [1], the “No. of mice examined at p.m. at termination of experiment (70-75th week) with other tumours” value was found to be 0, the “No. of mice examined at p.m. from 50-70th week with liver tumours” value was determined as 0, the “No. of mice examined at p.m. from 50-70th week with lung tumours” value is 0 and the “No. of mice examined at p.m. from 50-70th week with other tumours” value is 0. Moreover, under setting [2], the “No. of survivors at 50 weeks” value came to 22 and the “No. of survivors at 70 weeks” value came out at 21. Further, under setting [3], the “No. of mice examined at p.m. at termination of experiment (70-75th week) with liver tumours” value worked out at 13, the “No. of mice examined at p.m. at termination of experiment (70-75th week) with lung tumours” value turned out to be 1, the “No. of mice examined at p.m. at termination of experiment (70-75th week) with multiple liver tumours” value was 6 and the “No. of mice examined at p.m. at termination of experiment (70-75th week) with multiple lung tumours” value was found to be 1. Under setting [3], the “No. of mice examined at p.m. at termination of experiment (70-75th week) with other tumours” value is 0, the “No. of mice examined at p.m. from 50-70th week with liver tumours” value is reported as 0, the “No. of mice examined at p.m. from 50-70th week with lung tumours” value came to 0 and the “No. of mice examined at p.m. from 50-70th week with other tumours” value is on record as 0. Also, under setting [4], the “No. of survivors at 50 weeks” value is listed as 28 and the “No. of survivors at 70 weeks” value amounted to 27.
With `c1ccc2c(c1)-c1cc3ccc4ccccc4c3cc1C1OC21` (stereo not drawn) [Dibenz(a,h)anthracene 5,6-oxide], the “effect on the incidence of liver, lung or other tumours” value was “without apparent effect”. Moreover, for the setting “females, 60 µg, 1 treatment”, the “No. of mice examined at p.m. at termination of experiment (70-75th week) with liver tumours” value came to 0, the “No. of mice examined at p.m. at termination of experiment (70-75th week) with lung tumours” value was determined as 1, the “No. of mice examined at p.m. at termination of experiment (70-75th week) with multiple liver tumours” value is given as 0 and the “No. of mice examined at p.m. at termination of experiment (70-75th week) with multiple lung tumours” value stood at 0. For the setting “females, 60 µg, 1 treatment”, the “No. of mice examined at p.m. at termination of experiment (70-75th week) with other tumours” value is recorded as 1, the “No. of mice examined at p.m. from 50-70th week with liver tumours” value is 0, the “No. of mice examined at p.m. from 50-70th week with lung tumours” value is on record as 0 and the “No. of mice examined at p.m. from 50-70th week with other tumours” value is 0. Besides, under setting [5], the “No. of survivors at 50 weeks” value is listed as 20 and the “No. of survivors at 70 weeks” value is listed as 19. Besides, under “males, 60 µg, 1 treatment”, the “No. of mice examined at p.m. at termination of experiment (70-75th week) with liver tumours” value is 2, the “No. of mice examined at p.m. at termination of experiment (70-75th week) with lung tumours” value is 0, the “No. of mice examined at p.m. at termination of experiment (70-75th week) with multiple liver tumours” value was 1 and the “No. of mice examined at p.m. at termination of experiment (70-75th week) with multiple lung tumours” value amounted to 0. Under “males, 60 µg, 1 treatment”, the “No. of mice examined at p.m. at termination of experiment (70-75th week) with other tumours” value is reported as 0, the “No. of mice examined at p.m. from 50-70th week with liver tumours” value was determined as 0, the “No. of mice examined at p.m. from 50-70th week with lung tumours” value is reported as 0 and the “No. of mice examined at p.m. from 50-70th week with other tumours” value is 0. Moreover, under setting [6], the “No. of survivors at 50 weeks” value amounted to 19 and the “No. of survivors at 70 weeks” value worked out at 16.
For `c1ccc2c(c1)-c1ccccc1C1OC21` (stereo not drawn) [phenanthrene 9,10-oxide], the “effect on the incidence of liver, lung or other tumours” value is “no effect”. Under setting [1], the “No. of mice examined at p.m. at termination of experiment (70-75th week) with liver tumours” value came out at 2, the “No. of mice examined at p.m. at termination of experiment (70-75th week) with lung tumours” value turned out to be 0, the “No. of mice examined at p.m. at termination of experiment (70-75th week) with multiple liver tumours” value is on record as 1 and the “No. of mice examined at p.m. at termination of experiment (70-75th week) with multiple lung tumours” value worked out at 0. For the same compound, under setting [1], the “No. of mice examined at p.m. at termination of experiment (70-75th week) with other tumours” value came out at 0, the “No. of mice examined at p.m. from 50-70th week with liver tumours” value is 0, the “No. of mice examined at p.m. from 50-70th week with lung tumours” value amounted to 0 and the “No. of mice examined at p.m. from 50-70th week with other tumours” value is listed as 0. For the same compound, under setting [2], the “No. of survivors at 50 weeks” value came out at 13 and the “No. of survivors at 70 weeks” value is given as 13. In addition, under setting [3], the “No. of mice examined at p.m. at termination of experiment (70-75th week) with liver tumours” value is reported as 4, the “No. of mice examined at p.m. at termination of experiment (70-75th week) with lung tumours” value was determined as 2, the “No. of mice examined at p.m. at termination of experiment (70-75th week) with multiple liver tumours” value is 1 and the “No. of mice examined at p.m. at termination of experiment (70-75th week) with multiple lung tumours” value was determined as 1. In addition, under setting [3], the “No. of mice examined at p.m. at termination of experiment (70-75th week) with other tumours” value was 0, the “No. of mice examined at p.m. from 50-70th week with liver tumours” value stood at 0, the “No. of mice examined at p.m. from 50-70th week with lung tumours” value came to 0 and the “No. of mice examined at p.m. from 50-70th week with other tumours” value is reported as 0. Moreover, under setting [4], the “No. of survivors at 50 weeks” value is on record as 19 and the “No. of survivors at 70 weeks” value turned out to be 17.
